From patent US8329645B2, “Polymyxin derivatives and uses thereof” (priority 2008, dated 2012)

Key:
S. marcescens ATCC8100 = assay: E-test MIC with or without NAB7061 (4 μg/ml), Mueller-Hinton agar; assay type: cell-based, Serratia marcescens
Protocol: (§1) MICs were determined by using E-strips (Biodisk Ltd., Solna, Sweden) according to the manufacturer's instructions.
(§2) The strains originated from ATCC (11 strains), CCUG (11 strains), and NCTC (The National Collection of Type Cultures, Colindale, U.K.; 2 strains). Eight strains (the F-strains) were purchased from Mobidiag Ltd., Helsinki, Finland.

P. mirabilis ATCC29906 = assay: as above; assay type: cell-based, Proteus mirabilis
Protocol: as §1, §2

[1] = tested on: both Acinetobacter strains (ATCC 19606 and F264); assay: E-test sensitization by NAB739, both strains; assay type: cell-based, Acinetobacter baumannii
E. coli ATCC25922 = details: E. coli ATCC25922
Procedure, shortened: (§3)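 E-strip MIC determination, run as instructed by the manufacturer.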

K. pneumoniae ATCC13883 = details: K. pneumoniae ATCC13883
Procedure, shortened: as §3

K. pneumoniae CCUG45421 = assay: E-test MIC with or without NAB7061 (4 μg/ml), Mueller-Hinton agar; assay type: cell-based, Klebsiella pneumoniae
Protocol: as §1, §2

K. pneumoniae F144 = assay: as above; assay type: cell-based, Klebsiella pneumoniae
Protocol: as §1, §2

K. pneumoniae F145 = assay: as above; assay type: cell-based, Klebsiella pneumoniae
Protocol: as §1, §2

K. pneumoniae F136 = assay: as above; assay type: cell-based, Klebsiella pneumoniae
Protocol: as §1, §2

A. baumannii ATCC19606 = assay: E-test MIC of antibiotics on Mueller Hinton agar containing increasing concentrations of NAB739; assay type: cell-based, Acinetobacter baumannii
A. baumannii F264 = assay: as above; assay type: cell-based, Acinetobacter baumannii
P. vulgaris ATCC13315 = assay: E-test MIC with or without NAB7061 (4 μg/ml), Mueller-Hinton agar; assay type: cell-based
Protocol: as §1, §2

S. maltophilia ATCC17444 = assay: as above; assay type: cell-based
Protocol: as §1, §2

C. freundii ATCC8090 = assay: as above; assay type: cell-based, Citrobacter freundii
Protocol: as §1, §2

K. oxytoca CCUG51683 = assay: as above; assay type: cell-based, Klebsiella oxytoca
Protocol: as §1, §2

K. oxytoca ATCC13182 = assay: as above; assay type: cell-based, Klebsiella oxytoca
Protocol: as §1, §2

Ac. baumannii F263 = assay: as above; assay type: cell-based, Acinetobacter baumannii; details: Ac. baumannii F263
Protocol: as §1, §2

Ac. baumannii ATCC19606 = assay: as above; assay type: cell-based, Acinetobacter baumannii; details: Ac. baumannii ATCC19606
Protocol: as §1, §2

Ac. baumannii F264 = assay: as above; assay type: cell-based, Acinetobacter baumannii; details: Ac. baumannii F264
Protocol: as §1, §2

## CO[C@H]1/C=C/O[C@@]2(C)Oc3c(C)c(O)c4c(O)c(c(/C=N/N5CCN(C)CC5)c(O)c4c3C2=O)NC(=O)/C(C)=C\C=C\[C@H](C)[C@H](O)[C@@H](C)[C@@H](O)[C@@H](C)[C@H](OC(C)=O)[C@@H]1C [Rifampin]
S. marcescens ATCC8100
  MIC of antibiotic in the presence of 4 μg/ml of NAB 7061: 16 µg/mL
  Sensitization factor to antibiotic (MIC without / with 4 μg/ml of NAB 7061): <2
P. mirabilis ATCC29906
  MIC of antibiotic in the presence of 4 μg/ml of NAB 7061: 1 to 6 µg/mL
  Sensitization factor to antibiotic (MIC without / with 4 μg/ml of NAB 7061): <2
[1]
  sensitization factors to antibiotic at NAB739 0.5 μg/ml: 85-128
E. coli ATCC25922
  MIC of antibiotic in the presence of 4 μg/ml of NAB 7061: 0.016 to 0.047 µg/mL
  Sensitization factor to antibiotic (MIC without / with 4 μg/ml of NAB 7061): 250-750
K. pneumoniae ATCC13883
  Sensitization factor to antibiotic (MIC without / with 4 μg/ml of NAB 7061): 250-500
K. pneumoniae CCUG45421
  MIC of antibiotic in the presence of 4 μg/ml of NAB 7061: 2 to 3 µg/mL
  Sensitization factor to antibiotic (MIC without / with 4 μg/ml of NAB 7061): 10-20
K. pneumoniae F144
  MIC of antibiotic in the presence of 4 μg/ml of NAB 7061: 0.19 µg/mL
  Sensitization factor to antibiotic (MIC without / with 4 μg/ml of NAB 7061): >170
K. pneumoniae F145
  MIC of antibiotic in the presence of 4 μg/ml of NAB 7061: 0.19 to 0.25 µg/mL
  Sensitization factor to antibiotic (MIC without / with 4 μg/ml of NAB 7061): 170
K. pneumoniae F136
  MIC of antibiotic in the presence of 4 μg/ml of NAB 7061: 0.75 µg/mL
  Sensitization factor to antibiotic (MIC without / with 4 μg/ml of NAB 7061): >43
A. baumannii ATCC19606; NAB 739 0 μg/ml
  MIC of antibiotic in the presence of NAB739: 4 µg/mL
A. baumannii ATCC19606; NAB 739 0.5 μg/ml
  MIC of antibiotic in the presence of NAB739: 0.047 µg/mL
A. baumannii ATCC19606; NAB 739 1 μg/ml
  MIC of antibiotic in the presence of NAB739: 0.006 µg/mL
A. baumannii F264; NAB 739 0 μg/ml
  MIC of antibiotic in the presence of NAB739: 12 µg/mL
A. baumannii F264; NAB 739 0.5 μg/ml
  MIC of antibiotic in the presence of NAB739: 0.094 µg/mL
A. baumannii F264; NAB 739 1 μg/ml
  MIC of antibiotic in the presence of NAB739: 0.016 µg/mL
A. baumannii F264; NAB 739 […]
  MIC of antibiotic in the presence of NAB739: 0.38 µg/mL
P. vulgaris ATCC13315
  MIC of antibiotic in the presence of 4 μg/ml of NAB 7061: 1 to 1.5 µg/mL
  Sensitization factor to antibiotic (MIC without / with 4 μg/ml of NAB 7061): <2
S. maltophilia ATCC17444
  MIC of antibiotic in the presence of 4 μg/ml of NAB 7061: 2 µg/mL
  Sensitization factor to antibiotic (MIC without / with 4 μg/ml of NAB 7061): 4-8
C. freundii ATCC8090
  MIC of antibiotic in the presence of 4 μg/ml of NAB 7061: 0.023 to 0.032 µg/mL
  Sensitization factor to antibiotic (MIC without / with 4 μg/ml of NAB 7061): 500-1000
K. oxytoca CCUG51683
  MIC of antibiotic in the presence of 4 μg/ml of NAB 7061: 0.012 to 0.023 µg/mL
  Sensitization factor to antibiotic (MIC without / with 4 μg/ml of NAB 7061): 700-2000
K. oxytoca ATCC13182
  MIC of antibiotic in the presence of 4 μg/ml of NAB 7061: 0.032 to 0.047 µg/mL
  Sensitization factor to antibiotic (MIC without / with 4 μg/ml of NAB 7061): 680-750
Ac. baumannii F263
  MIC of antibiotic in the presence of 4 μg/ml of NAB 7061: 0.032 to 0.19 µg/mL
Ac. baumannii ATCC19606
  Sensitization factor to antibiotic (MIC without / with 4 μg/ml of NAB 7061): 24-32
Ac. baumannii F264
  Sensitization factor to antibiotic (MIC without / with 4 μg/ml of NAB 7061): 32
